From patent US20080045514A1 (Cytovia, Inc., priority 2006, published 2008)

Assays:
Assay type in all cases: cell-based
[1] = tested on: human breast cancer cell line T-47D; test: Inhibition of cell proliferation (GI50), T47D; details: Homo sapiens; T47D cells, 48 h, CellTiter-Glo
Protocol: (§1) Human breast cancer cell lines T-47D, human hepatocellular carcinoma cell line SNU398, human colon carcinoma cell line HCT116, human lung cancer cell line H1299, human leukemia cell line K562, human lymphoma cell line Raji, human B cell lymphoblastoid cell line Ramos, and human Burkitt's lymphoma cell line Namalwa were grown and harvested as in Example 100. An aliquot of […] of cells (4.4×10^4 cells/mL) was added to a well of a 96-well microtiter plate containing 5 μL of a 10% DMSO in RPMI-1640 media solution containing 10 nM to 100 μM of 3-(2-chlorophenyl)-6-(3,4-methylenedioxyphenyl)-7H-[1,2,4]triazolo[3,4-b][1,3,4]thiadiazine (1 nM to 10 μM final). An aliquot of 45 μL of cells was added to a well of a 96-well microtiter plate containing 5 μL of a 10% DMSO in RPMI-1640 media solution without compound as the control sample for maximal cell proliferation (LMax). The samples were mixed by agitation and then incubated at 37° C. for 48 h in a 5% CO2-95% humidity incubator. After incubation, the samples were removed from the incubator and 25 μL of CellTiter-Glo™ reagent (Promega) was added. The samples were mixed by agitation and incubated at room temperature for 10-15 min. Plates were then read using a luminescent plate reader (Model SPECTRAfluor Plus, Tecan) to give Ltest values.
(§2) The samples were mixed by agitation and then incubated at 37° C. for 0.5 h in a 5% CO2-95% humidity incubator. After incubation, the samples were removed from the incubator and 25 μL of CellTiter-Glo™ reagent (Promega) was added. The samples were mixed by agitation and incubated at […] 10-15 min at room temperature in a 5% CO2-95% humidity incubator. Fluorescence was read as above, (LStart) defining luminescence for initial cell number used as baseline in GI50 determinations.
(§3) Calculation: GI50 (dose for 50% inhibition of cell proliferation) is the concentration where [(Ltest−LStart)/(LMax−LStart)]=0.5.

[2] = tested on: human colon carcinoma cell line HCT116; test: Caspase cascade activation (EC50), HCT116; details: Homo sapiens, HCT-116; HCT116 cells; caspase cascade activation; read-out: caspase potency (EC50) HCT116
Method in brief: (§4)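 Fluorogenic DEVD-R110 cleavage at 485/530 nm gives the read-out, taken 3 h after substrate addition and corrected by the control's T=0 background. Compound-treated over control net RFU ratio was fitted sigmoidally for EC50. Cells had been treated 48 h at 0.016 to 10 μM final.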

[3] = tested on: human breast cancer cell line T-47D; test: Caspase cascade activation (EC50), T-47D; details: Homo sapiens; T47D cells; caspase cascade activation; read-out: caspase potency (EC50) T47D
Method in brief: as §4

[4] = tested on: human colon carcinoma cell line HCT116; test: Inhibition of cell proliferation (GI50), HCT116; details: Homo sapiens; HCT 116 cells, 48 h, CellTiter-Glo
Method in brief: (§5)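 48 h continuous treatment, 37 °C; final dose range 1 nM–10 μM; ATP-based luminescent viability (CellTiter-Glo); GI50 relative to 0.5 h start signal.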

[5] = tested on: human Burkitt's lymphoma cell line Namalwa; test: Inhibition of cell proliferation (GI50), Namalwa; details: Homo sapiens, Burkitts lymphoma cell; Namalwa cells, 48 h, CellTiter-Glo
Method in brief: as §5

[6] = tested on: human hepatocellular carcinoma cell line SNU398; test: Caspase cascade activation (EC50), SNU398; details: Homo sapiens, SNU-398; SNU398 cells; caspase cascade activation; read-out: caspase potency (EC50) SNU398
Method in brief: as §4

[7] = tested on: human Burkitt's lymphoma cell line Namalwa; test: Caspase cascade activation (EC50), Namalwa; details: Homo sapiens, Burkitts lymphoma cell; Namalwa cells; caspase cascade activation; read-out: caspase potency (EC50) Namalwa
Method in brief: as §4

[8] = tested on: human hepatocellular carcinoma cell line SNU398; test: Inhibition of cell proliferation (GI50), SNU398; details: Homo sapiens; SNU 398 cells, 48 h, CellTiter-Glo
Protocol: as §1, §2, §3

Row | SMILES | GI50 [1] [nM] | EC50 [2] [nM] | EC50 [3] [nM] | GI50 [4] [nM] | GI50 [5] [nM] | EC50 [6] [nM] | EC50 [7] [nM] | GI50 [8] [nM]
1 | COc1ccccc1-c1nnc2n1N=C(c1ccc(OC)c(OC)c1OC)CS2 [Example 42, 6-(2,3,4-Trimethoxyphenyl)-3-(2-methoxyphenyl)-7H-[1,2,4]triazolo[3,4-b][1,3,4]thiadiazine] | 288 | 753 | 335 | 482 | 433 | 488 | 316 | 121
2 | COc1ccccc1-c1nnc2n1N=C(c1ccc3c(c1)OCCO3)CS2 [Example 43, 6-(2,3-Dihydrobenzo[b][1,4]dioxin-6-yl)-3-(2-methoxyphenyl)-7H-[1,2,4]triazolo[3,4-b][1,3,4]thiadiazine] | 34 | 25 | 35 | 40 | 64 | 17 | 15 | 13
3 | COc1ccc(C2=Nn3c(nnc3-c3ccccc3OC)SC2)cc1 [Example 46, 3-(2-Methoxyphenyl)-6-(4-methoxyphenyl)-7H-[1,2,4]triazolo[3,4-b][1,3,4]thiadiazine] | 12 | 19 | 43 | 8 | 13 | 17 | 11 | 10
4 | COc1ccccc1-c1nnc2n1N=C(c1ccc3[nH]c(=O)oc3c1)CS2 [Example 47, 6-(2,3-Dihydro-2-oxobenzo[d]oxazol-6-yl)-3-(2-methoxyphenyl)-7H-[1,2,4]triazolo[3,4-b][1,3,4]thiadiazine] | 3020 | 5540 | 2330 | 3000 | 1480 | 2740 | 4790 | 1220
5 | COc1ccccc1-c1nnc2n1N=C(c1ccc(C(F)(F)F)cc1)CS2 [Example 48, 6-(4-(Trifluoromethyl)phenyl)-3-(2-methoxyphenyl)-7H-[1,2,4]triazolo[3,4-b][1,3,4]thiadiazine] | 690 | 569 | 545 | 324 | 452 | 511 | 480 | 120
6 | COc1ccccc1-c1nnc2n1N=C(c1ccc(C)c(N)c1)CS2 [Example 58, 6-(3-Amino-4-methylphenyl)-3-(2-methoxyphenyl)-7H-[1,2,4]triazolo[3,4-b][1,3,4]thiadiazine] | 26 | 54 | 76 | 52 | 25 | 32 | 30 | 24
7 | COc1ccccc1-c1nnc2n1N=C(c1ccc(Cl)c(N)c1)CS2 [Example 59, 6-(3-Amino-4-chlorophenyl)-3-(2-methoxyphenyl)-7H-[1,2,4]triazolo[3,4-b][1,3,4]thiadiazine] | 103 | 59 | 102 | 149 | 84 | 43 | 34 | 98
8 | Cc1ccc(C2=Nn3c(nnc3-c3ccccc3C)SC2)cc1N [Example 61, 6-(3-Amino-4-methylphenyl)-3-(2-methylphenyl)-7H-[1,2,4]triazolo[3,4-b][1,3,4]thiadiazine] | 269 | 137 | 330 | 400 | 150 | 109 | 71 | 228
9 | COc1ccc(Cl)cc1-c1nnc2n1N=C(c1ccc(C)cc1)CS2 [Example 62, 3-(5-Chloro-2-methoxyphenyl)-6-(4-methylphenyl)-7H-[1,2,4]triazolo[3,4-b][1,3,4]thiadiazine] | 33 | 31 | 101 | 50 | 15 | 24 | 18 | 10

Next, values leading:

Row | GI50 [1] [nM] | EC50 [2] [nM] | EC50 [3] [nM] | GI50 [4] [nM] | GI50 [5] [nM] | EC50 [6] [nM] | EC50 [7] [nM] | GI50 [8] [nM] | SMILES
10 | 371 | 277 | 261 | 300 | 232 | 146 | 128 | 119 | COc1cccc(C2=Nn3c(nnc3-c3ccccc3OC)SC2)c1 [Example 63, 3-(2-Methoxyphenyl)-6-(3-methoxylphenyl)-7H-[1,2,4]triazolo[3,4-b][1,3,4]thiadiazine]
11 | 1510 | 635 | 610 | 4680 | 1230 | 522 | 561 | 204 | COc1cccc(-c2nnc3n2N=C(c2ccc(C)cc2)CS3)c1OC [Example 65, 3-(2,3-Dimethoxyphenyl)-6-(4-methylphenyl)-7H-[1,2,4]triazolo[3,4-b][1,3,4]thiadiazine]
12 | 47 | 29 | 72 | 127 | 43 | 21 | 16 | 24 | COc1cc(-c2nnc3n2N=C(c2ccc(N)cc2)CS3)cc(OC)c1OC [Example 66, 6-(4-Aminophenyl)-3-(3,4,5-trimethoxyphenyl)-7H-[1,2,4]triazolo[3,4-b][1,3,4]thiadiazine]
13 | 2760 | 1260 | 5260 | 947 | 269 | 636 | 481 | 144 | Cc1ccc(C2=Nn3c(nnc3-c3ccccc3F)SC2)cc1 [Example 68, 3-(2-Fluorophenyl)-6-(4-methylphenyl)-7H-[1,2,4]triazolo[3,4-b][1,3,4]thiadiazine]
14 | 50 | 17 | 42 | 41 | 10 | 15 | 11 | 4 | COc1ccc(OC)c(-c2nnc3n2N=C(c2ccc(C)cc2)CS3)c1 [Example 69, 3-(2,5-Dimethoxyphenyl)-6-(4-methylphenyl)-7H-[1,2,4]triazolo[3,4-b][1,3,4]thiadiazine]
15 | 500 | 205 | 546 | 1010 | 158 | 165 | 157 | 144 | Cc1ccc(C2=Nn3c(nnc3-c3ccccc3C)SC2)cc1 [Example 70, 3-(2-Methylphenyl)-6-(4-methylphenyl)-7H-[1,2,4]triazolo[3,4-b][1,3,4]thiadiazine]
16 | 276 | 76 | 453 | 169 | 77 | 70 | 65 | 91 | CSc1ccccc1-c1nnc2n1N=C(c1ccc(C)cc1)CS2 [Example 71, 3-(2-Methylthiophenyl)-6-(4-methylphenyl)-7H-[1,2,4]triazolo[3,4-b][1,3,4]thiadiazine]
17 | 345 | 266 | 238 | 867 | 179 | 203 | 136 | 180 | COc1ccccc1-c1nnc2n1N=C(c1ccc(N)cc1)CS2 [Example 75, 6-(4-Aminophenyl)-3-(2-methoxyphenyl)-7H-[1,2,4]triazolo[3,4-b][1,3,4]thiadiazine]
